# From paper doi:10.1101/871186v1 (bioRxiv, 2019)
# What was measured:
# [1] = test system: neurons (NeuN), astrocytes (GFAP), microglia (TMEM), lysosomes (LAMP1), early endosomes (EEA1); assay type: in vivo; conditions: mouse brain sections after IV Cy5-MTfp, 3D confocal
# [2] = Tissue distribution of intact MTfp by LCMS; assay type: in vivo, mouse (CD1)
# [3] = test system: in vitro bovine BBB model (primary bovine brain capillary endothelial cells supported by primary rat glial cells); experiment: In vitro BBB model transcytosis assay of MTf fragments and peptides; assay type: in vitro ADME
sequence,measurement,setting,value
DSSHAFTLDELR [MTfp],MTFp found in the early endosomes,[1]; EEA1 marker,approximately 20%
same,MTFp found in the lysosomes,[1]; LAMP1 marker,40%
same,"initial rate of transport, kidney",[2]; from 30-minute concentration,9.9 nM/min
same,"initial rate of transport, liver",[2]; from 30-minute concentration,7.3 nM/min
same,initial rate of transport into the brain,"[2]; slope of time vs concentration, 0 and 30-minute time points, protocol of Bickel",~2 nM/min
same,Abluminal vs. Total,"[3]; T = 120, abluminal compared to initial concentration",1.90%
same,Abluminal vs. Luminal,"[3]; T = 120, measure of transcytosis efficiency",2.41%
